5 molecules from patent publication US8835455B2, “Crystalline forms of trans-7-oxo-6-(sulphooxy)-1,6-diazabicyclo[3,2,1]octane-2-carboxamide sodium salt” (Forest Laboratories Holdings Limited, priority 2009, dated 2014) can be followed below.

Read-outs that look alike come from different tables or passages of the source.

A short description of data set [1]: Phase I study Part A, single IV dose, plasma pharmacokinetics. Type of data set: in vivo, healthy male and female subjects. As to conditions: for AUC(0-inf) / Cmax / T1/2 / half-life: Geo mean; for Tmax: Median; for pharmacokinetic interaction between ceftaroline fosamil and NXL-104: Phase I Part A, single 600 mg IV doses alone or concomitant. The method, then: (§1) A single center, two-part randomized Phase I Study was conducted to evaluate the safety, tolerability, and pharmacokinetics of single and multiple intravenous doses of ceftaroline fosamil and NXL-104 in healthy male and female subjects, aged 18 through 45 years.
(§2) Part A was an open-label, 3-way crossover, single-dose study to evaluate the safety, tolerability, and pharmacokinetics of ceftaroline and NXL-104 following co-administration of a single intravenous (IV) dose of ceftaroline fosamil and NXL-104 in 12 healthy subjects.
Treatment A: single dose of 600 mg ceftaroline fosamil via IV infusion over one hour.
Treatment B: single dose of 600 mg NXL-104 via IV infusion over one hour.
Treatment C: single dose of 600 mg ceftaroline fosamil and 600 mg NXL-104 via concomitant IV infusion over one hour.
Blood samples were collected at the following times to determine ceftaroline, ceftaroline fosamil, ceftaroline M-1 (metabolite of ceftaroline fosamil), and NXL-104 free-acid plasma concentrations.
Days 1 (Period I), 6 (Period II), and 11 (Period III): in each study period immediately before (within 15 minutes) the start of infusion and after the start of study drug infusion at 20, 40, 60 (immediately before the end of study-drug infusion), 65, and 75 minutes and at 1.5, 2, 3, 4, 6, 8, 12, 18, 24, 36, and 48 hours
The principal parameters describing the pharmacokinetics of ceftaroline, ceftaroline fosamil, ceftaroline M-1 (metabolite of ceftaroline fosamil), and NXL-104 were derived from plasma concentrations using noncompartmental analysis with the software program WinNonlin. Plasma concentrations below the limit of quantification were treated as zero for all PK calculations. The actual sampling times were used in the calculations of PK parameters.
The following PK parameters were determined for ceftaroline, ceftaroline ceftaroline M-1, and NXL-104 free acid: AUC0-t and area under the plasma concentration versus time curve from time zero to infinity (AUC0-∞), Cmax, time of maximum plasma concentration (Tmax), CL, volume of distribution (VA and steady-state volume of distribution (Vss). Minimum plasma concentration (Cmin), accumulation ratio (Rac), and area under the plasma concentration versus time curve during the dosing interval, τ, (AUC0-τ) will be determined following multiple-dose administration.
Because all doses of ceftaroline are expressed in terms of anhydrous, acetate-free ceftaroline fosamil (ceftaroline prodrug, molecular weight=684.68), the following corrections were made to the dose when calculating PK parameters that include doses for ceftaroline (molecular weight=604.70) and ceftaroline M-1 (molecular weight=622.72): Ceftaroline dose=0.883×ceftaroline fosamil dose Ceftaroline M-1 dose=0.909×ceftaroline fosamil dose
The Cmax of ceftaroline, ceftaroline fosamil, ceftaroline M-1, and NXL-104 free acid was determined observationally as the peak concentration for each subject. Tmax was determined as the time corresponding to Cmax.
Area under the plasma concentration versus time curve up to the time corresponding to the last measurable concentration (AUC0-t) was calculated by numeric integration using the linear trapezoidal rule as follows:
Estimates of T1/2 were calculated using the following equation: T1/2=0.693/λz
The AUC0-∞ was calculated according to the following equation: AUC0-∞=AUC0-t+Clast/λz
CL was calculated with the following equation: CL=Doseiv/AUC0-∞
Vz based on the terminal phase was determined as: Vz=Doseiv/λz×AUC0-∞
In part A, PK parameters were compared by analysis of variance using SAS version 9.1.3 on a UNIX operating system. A general linear model with sequence, subject within sequence, treatment, and period as factors was used as the basis for the analysis. […]

Data set [2] in a line: Phase I study, safety and tolerability. In kind it is in vivo, healthy male and female subjects. As to conditions: healthy subjects, IV. The method, then:
as §1, §2
The following procedures were performed and recorded at screening: • Collect blood samples for serology testing, hematology evaluation (including CBC, prothrombin time and international normalized ratio [PT/INR], partial thromboplastin time [PTT], free hemoglobin, haptoglobin, and reticulocyte count), and comprehensive metabolic panel • Collect urine for UA (including urine microscopy) and for drugs-of-abuse screen • Perform β-HCG serum pregnancy test (female subjects only) • Calculate CrCl and BMI • Assess vital signs • Perform 12-lead ECG • Perform complete physical examination • Assess prior medications • Record medical and surgical history • Record any spontaneously reported AE or SAE between signing of informed consent and Day —1 for subjects who comply with all screening processes […]

Data set [3] in a line: Assay for NXL-104 and related substances (reverse phase gradient HPLC, UV 195 nm) on stored samples. In kind it is physicochemical. Particulars: vial at 25° C./60% RH. The method, then: Assay for NXL-104 and Related Substances
NXL-104 and related substances in compositions comprising trans-7-oxo-6-(sulphooxy)-1,6-diazabicyclo[3,2,1]octane-2-carboxamide sodium salt were determined by a reverse phase gradient HPLC method with UV detection at 195 nm.
(§3) The following parameters were used for analysis:
(§4) Column: Inertsil ODS-3, 250 mm×4.6 mm, 5 μm
Mobile Phase A: 100 mM KH2PO4 Solution
Mobile Phase B: Acetonitrile: Water, [50:50 (v:v)]
(§5) Column Temperature: 25° C.
Autosampler Temperature: 5° C.
(§6) Detector/Setting: UV/195 nm
Run Time: about 25 minutes
Injector Washing Solution: Acetonitrile:Water, [10:90 (v:v)]
Approximate relative retention times (RRT) values for trans-7-oxo-6-(sulphooxy)-1,6-diazabicyclo[3,2,1]octane-2-carboxamide sodium salt and disulfate were 1.00 and 0.37.
The stability of amorphous trans-7-oxo-6-(sulphooxy)-1,6-diazabicyclo[3,2,1]octane-2-carboxamide sodium salt stored in a vial stored at 25° C. with a relative humidity of 60% (25° C./60% RH) was evaluated using the NXL-104 assay described above.
NXL-104 and related substances were measured according to the assay described in Example 6.

The nature of the next data set: pH of stability samples. Type of data set: physicochemical. As to conditions: vial at 25° C./60% RH.
Data set [4] is described as follows: Decarbonyl degradation product of NXL-104 (reverse phase gradient HPLC, UV 195 nm). In kind it is physicochemical. As to conditions: vial at 25° C./60% RH. The method, then:
The decarbonyl degradation product of trans-7-oxo-6-(sulphooxy)-1,6-diazabicyclo[3,2,1]octane-2-carboxamide sodium salt was determined by a reverse phase gradient HPLC method with UV detection at 195 nm.
as §3, §4
Mobile Phase A: Deionized Water
Mobile Phase B: 50 mM KH2PO4 solution: Acetonitrile, [50:50 (v:v)]
as §5, §6
Run Time (Approximate): 35 minutes
Injector Washing Solution: Acetonitrile:Water, [50:50 (v:v)] (Recommended)
Approximate relative retention time (RRT) for decarbonyl was 0.17.

The mark [5] stands for this setting: Treatment 600 mg Ceftaroline fosamil.
The mark [6] stands for this setting: Treatment 600 mg NXL-104 + Ceftaroline fosamil 600 mg.
Where [7] appears, read: both sexes, human, plasma, iv, 600 mg, Treatment 600 mg Ceftaroline fosamil.
Setting [8] is: both sexes, human, plasma, iv, 600 mg, Treatment 600 mg Ceftaroline fosamil, read-out: AUC0-inf.
The mark [9] stands for this setting: both sexes, human, plasma, iv, 600 mg, Treatment 600 mg Ceftaroline fosamil, read-out: Cmax.
[10] abbreviates: both sexes, human, plasma, iv, 600 mg, Treatment 600 mg NXL-104 + Ceftaroline fosamil 600 mg.
The mark [11] stands for this setting: both sexes, human, plasma, iv, 600 mg, Treatment 600 mg NXL-104 + Ceftaroline fosamil 600 mg, read-out: AUC0-inf.
Setting [12] is: both sexes, human, plasma, iv, 600 mg, Treatment 600 mg NXL-104 + Ceftaroline fosamil 600 mg, read-out: Cmax.
[13] abbreviates: both sexes, human, plasma, iv, Treatment 600 mg Ceftaroline fosamil, read-out: Tmax.

For the molecule `CCO/N=C(\C(=O)N[C@H](C(=O)[O-])[C@@H]1NC(C(=O)[O-])=C(Sc2nc(-c3cc[n+](C)cc3)cs2)CS1)c1nsc(N)n1.[H+]` [Ceftaroline M-1], in data set [1] (setting [5]), the AUC(0-inf) is 16420 ng·h/mL, the Cmax is 3290 ng/mL, the T1/2 turned out to be 3.75 h and the Tmax turned out to be 1.08 h. In data set [1] (setting [6]), the AUC(0-inf) was 15780 ng·h/mL, the Cmax was found to be 3210 ng/mL, the T1/2 amounted to 3.78 h and the Tmax was 1.04 h.
As to `CCO/N=C(\C(=O)N[C@@H]1C(=O)N2C(C(=O)[O-])=C(Sc3nc(-c4cc[n+](C)cc4)cs3)CS[C@H]12)c1nsc(N)n1` [Ceftaroline], the half-life in data set [1] (setting [7]) is 2.51 h; in data set [1] (setting [10]), 2.47 h. The AUC(0-inf) in data set [1] (setting [8]) came to 61000 ng·h/mL; in data set [1] (setting [11]), 60000 ng·h/mL. In addition, the values for the Cmax in data set [1] (setting [9]) and in data set [1] (setting [12]) were 24800 ng/mL and 26700 ng/mL, respectively. In addition, the Tmax in data set [1] (setting [13]) is 1 h.
On to `NC(=O)[C@@H]1CC[C@@H]2CN1C(=O)N2OS(=O)(=O)[O-].[Na+]` [NXL-104, trans-7-oxo-6-(sulphooxy)-1,6-diazabicyclo[3,2,1]octane-2-carboxamide sodium salt], for which the safety entry in data set [2] is “no safety concerns”. Moreover, the “pharmacokinetic interaction between ceftaroline fosamil and NXL-104” value in data set [1] was “no pharmacokinetic interactions”. Besides, the half-life in data set [1] (setting [10]) was 1.63 h; in data set [1] (both sexes, human, plasma, iv, 600 mg, Treatment 600 mg NXL-104) it was 1.64 h. The AUC(0-inf) in data set [1] (setting [11]) turned out to be 51200 ng·h/mL; in data set [1] (both sexes, human, plasma, iv, 600 mg, Treatment 600 mg NXL-104, read-out: AUC0-inf), 51900 ng·h/mL. Further, the Cmax in data set [1] (setting [12]) came to 29100 ng/mL; in data set [1] (both sexes, human, plasma, iv, 600 mg, Treatment 600 mg NXL-104, read-out: Cmax), 29500 ng/mL. The time of peak concentration (Tmax) in data set [1] (both sexes, human, plasma, iv, Treatment 600 mg NXL-104, read-out: Tmax) is 1 h.
`NC(=O)[C@@H]1CC[C@@H]2CN1C(=O)N2OS(=O)(=O)[O-].[Na+]` [amorphous NXL-104, trans-7-oxo-6-(sulphooxy)-1,6-diazabicyclo[3,2,1]octane-2-carboxamide sodium salt]: the Disulfate is given as 0.19% in data set [3] (1 month), 0.17% in data set [3] (3 months), 0.17% in data set [3] (6 months) and 0.19% in data set [3] (Initial). In addition, the NXL-104 % is 111.3% in data set [3] (1 month), 108.0% in data set [3] (3 months), 106.1% in data set [3] (6 months) and 106.4% in data set [3] (Initial). Moreover, the “Total Impurities, NXL-104 related” value in data set [3] (1 month) is reported as 0.89%; in data set [3] (3 months), 0.92%; in data set [3] (6 months), 0.87%; in data set [3] (Initial), 0.90%. For the same molecule, the pH is 7.3 in “pH of stability samples” (1 month), 7.2 in the data set “pH of stability samples” (3 months), 7.3 in the data set “pH of stability samples” (6 months) and 7.0 in the data set “pH of stability samples” (Initial). In addition, the Decarbonyl in data set [4] (1 month) turned out to be 0.46%; in data set [4] (3 months) it was 0.48%; in data set [4] (6 months), 0.33%; in data set [4] (Initial), 0.63%.
On to `CCO/N=C(\C(=O)N[C@@H]1C(=O)N2C(C(=O)[O-])=C(Sc3nc(-c4cc[n+](C)cc4)cs3)CS[C@H]12)c1nsc(NP(=O)(O)O)n1` [ceftaroline fosamil, (6R,7R)-7-{(2Z)-2-(ethoxyimino)-2-[5-(phosphonoamino)-1,2,4-thiadiazol-3-yl]acetamido}-3-{[4-(1-methylpyridin-1-ium-4-yl)-1,3-thiazol-2-yl]sulfanyl}-8-oxo-5-thia-1-azabicyclo[4.2.0]oct-2-ene-2-carboxylate], for which the safety entry in data set [2] is listed as “no safety concerns”. In data set [1], the “pharmacokinetic interaction between ceftaroline fosamil and NXL-104” value was “no pharmacokinetic interactions”. Besides, the half-life is 0.084 h in data set [1] (setting [7]) and 0.055 h in data set [1] (setting [10]). In addition, the AUC(0-inf) worked out at 2170 ng·h/mL in data set [1] (setting [8]) and 2160 ng·h/mL in data set [1] (setting [11]). In addition, the Cmax in data set [1] (setting [9]) was 2110 ng/mL; in data set [1] (setting [12]) it was 2370 ng/mL. In addition, the Tmax in data set [1] (setting [13]) stood at 0.67 h.

Usually Cmax stands for the highest concentration seen after dosing. As a reminder, the Tmax is the time at which the peak concentration occurs. Broadly, the half-life is the time needed for the level to fall by half in the phase considered.
